{"source": "patent US11406605B2", "about": "“Therapeutic compositions for treating pancreatic cancer” (Golden Biotechnology Corporation, priority 2017, dated 2022)", "key": {"[1]": {"test_system": "AsPC-1 pancreatic cancer cells", "assay": "Cytotoxicity of test articles (TC50), MTT assay", "assay_type": "cell-based, Human", "settings": "concentration at which cell viability was reduced to 50%", "protocol": "The human pancreatic carcinoma cell lines, AsPC-1, PANC-1 and CaPan-2 were seeded 3×10^4 cells per well and cultured in a forty-eight (48) well cell culture dish (growth area 0.95 cm^2 per well). Sixteen (16) hours later, cells were treated Compound 1 alone or Compound 1 with a clinical chemotherapy drug, respectively. After 48 or 72 hours of the treatment, methylthiazoletetrazolium (MTT) assay (supplemental protocol-1) was performed to measure the effect of treatment on the viability of cells during proliferation.\nB. Cell Preparation • 1. Remove and discard culture medium. • 2. Briefly rinse the cell layer with 5 mL HBSS. Gently shake and remove the HBSS. • 3. Add 5 mL trypsin-EDTA to 15 cm^2 polystyrene dishes. Incubate 5 mins at 37° C. in a humidified incubator with 95% air/5% CO2 atmosphere. • 4. Add 5 mL of complete growth medium (DMEM medium containing 10% FBS) and aspirate cells by gently pipetting. • 5. Count live cells using the trypan blue exclusion assay (supplemental protocol-2) with a hemocytometer. • 6. For in vitro study, cells will be seeded 3×10^4 cells per well and cultured in a forty-eight (48) wells cell culture dish for sixteen (16) hours until treatment. • 7. Incubate cultures at 37° C.\na. Cytotoxicity of test articles (TC50): AsPC-1 was seeded 3×10^4 cells (counted by Cell counter, LUNA™ Automated Cell Counter or hemocytometer) per well and cultured in a 48 wells cell culture dish. Cells were treated with single article from 400 or 800 μM with serial dilution to 0 μM. After 48 or 72 hours of treated, MTT assay was performed to measure the effect of treatment on the viability of AsPC-1 cells during proliferation. The absorbance at 595 nm was measured using a microplate reader (BioTEK, Synergy™ H1). Article sensitivity curves and TC50 values were calculated using GraphPad Prism 4.0 software."}, "[2]": {"test_system": "AsPC-1 subcutaneous xenograft", "assay": "Antitumor activity on AsPC-1 subcutaneous xenograft model", "assay_type": "in vivo, nude mice", "protocol": "The human pancreatic carcinoma cell line, AsPC-1, was cultured and the cells were injected subcutaneously in a flank of 60 mice. Three days later, the tumors could be felt in the mice. When tumors reached approximately 100-200 mg (mm^3), total of fifty one (51) tumor-bearing mice were randomly selected and sorted into one of six (6) groups. Vehicle (corn oil) treated mice were used as negative controls. Compound 1 combined with gemcitabine or paclitaxel were administered orally once a day and/or I.V. twice a week for four (4) weeks. Tumor measurements were recorded once a week using hand-held calipers and Visualsonic Vevo 2100 image system. Individual mouse weights were taken once a week during dosing. Mice were monitored daily for signs of toxicity and morbidity; any abnormal findings were recorded. The study was terminated four (4) weeks after initiation of drug administration.\nD. Human Pancreatic Carcinoma Xenograft Models: • 1. To create the subcutaneous xenograft model, athymic female nude mice (4-6 weeks old) were subcutaneously inoculated with 1×10^7 AsPC-1 cells in 0.1 mL of serum-free DMEM medium containing 20% Matrigel (BD Biosciences, Bedford Mass.). • 2. Tumor-bearing animals were divided into the following 6 groups as table 1. • 3. The mice were monitored for activity and physical condition every day, and the determination of body weight and measurement tumor mass should be done once a week. Tumor image will be photed by digital camera and Visualsonic Vevo 2100 image system. Tumor mass is determined by caliper measurement in two perpendicular diameters of the implant and calculate using the formula […], where “a” stands for the long diameter and “b” is the short diameter.\na. Cell Injections: Mice were injected subcutaneously into the right lateral thorax with 1×10^7 viable human pancreatic carcinoma AsPC-1 Cells. […]\nC. Tumor Measurements: The injection site of each animal was monitored one (1) time per week for signs of tumor growth. Throughout the study, the length (a) and width (b) of any tumors developed were measured in millimeters (mm) using vernier calipers, where a is the longer of the two (2) dimensions.\nD. Evaluation of drug synergistic effect by tumor growth inhibition (TGI) and tumor inhibitory ratio (TIR): Volume of tumor growth inhibition (TGI) for each group was calculated according to the following formula: Tumor growth inhibition (%)=(1−[T−T0]/[C−C0])×100 • T and T0 are the mean tumor volumes on the end day and day 1 of treatment, respectively, for the experimental groups. […] The tumor inhibitory ratio was calculated by the formula: Tumor inhibitory ratio (%)=[(WControl−WTreated)/WControl]×100% • WTreated and WControl are the average tumor weights of the treated and control mice, respectively. […]"}, "[3]": {"assay": "Body weight and hematological parameters in AsPC-1 xenograft study", "assay_type": "in vivo", "protocol": "A. Clinical Observations: Clinical observations of each study animal were performed and at least once daily (including weekends and holidays) for signs of morbidity, mortality and Test Article toxicity. Morbidity includes signs of illness such as, but not limited to, emaciation, dehydration, lethargy, hunched posture, unkempt appearance, dyspnea and urine or fecal staining. All abnormal findings will be recorded.\nB. Animal Weights: Individual animal weights were taken one (1) time per week after/before dosing. Weights were recorded first prior to cell injections and continued for the duration of the study.\nD. Hematological parameters: Cardiac blood was collected in EDTA for analyzing hematological parameters such as white blood cell count (WBC), red blood cell count (RBC), hemoglobin concentration (HB), hematocrit, mean corpuscular hemoglobin and concentration, platelet distribution width, platelet count, neutrophils, lymphocytes, monocytes, eosinophils. This was determined using hematology counter (Abbott Cell-Dyn 3700, IL)."}, "[4]": {"test_system": "metastatic pancreatic cancer", "assay": "Phase I study of Compound 1 with nab-paclitaxel and gemcitabine, preliminary results", "assay_type": "in vivo, human", "settings": "600 mg daily dosage of Compound 1 in combination with nab-paclitaxel and gemcitabine; after 3rd cycle (8 weeks treatment); individual patients", "from_the_text": "This is a single-arm, open-label, multi-center Phase I study of Compound 1 in combination with nab-paclitaxel and gemcitabine in first line treatment naïve subjects with Stage IV metastatic pancreatic carcinoma.\nThe first part of the study will follow a 3+3 dose escalation design to determine the MTD or MFD (based on PK and capsules strength) of antroquinonol in combination with standard dose regimen of nab-paclitaxel and gemcitabine. Two dose levels of antroquinonol given TID are planned based on dose escalation data and capsules strengths. The final number of subjects will be based on the number of dose levels investigated and DLTs occurrence. Up to 12 subjects may be treated in this part of the study. A Safety Monitoring Committee (SMC) will be set up for this study to review DLTs and overall safety data and judge the relevance of events to the dose escalation scheme. […]\nTreatments Administered: Compound 1 will be administered in 200- to 300-mg doses (planned dose levels), TID, given in 100 mg capsules (resulting a daily dosage of 600 mg to 900 mg). Additional dose levels may be investigated as determined by the study SMC. […]\nEfficacy Assessments: The RECIST 1.1 criteria will be used to assess subject response to treatment by determining ORR, DoR, DCR, PFS, PFS 3 months, and PFS 6 months. […] The OS, OS 6 months, and OS 12 months will also be evaluated."}, "[5]": {"test_system": "orthotopic PANC-1 human pancreatic cancer xenograft", "settings": "30, 60, and 90 mg/kg, cited from earlier work"}, "[6]": {"settings": "50, 100, 200, 300, 450, and 600 mg-dose levels, given daily for 4 weeks; cited from earlier work"}, "[7]": {"test_system": "advanced pancreatic cancer", "settings": "patients with advanced pancreatic cancer; cited from earlier work"}, "[8]": {"test_system": "metastatic pancreatic adenocarcinoma", "settings": "previously untreated metastatic pancreatic adenocarcinoma; cited from earlier work"}, "[9]": {"test_system": "advanced pancreatic cancer", "settings": "people with advanced pancreatic cancer; cited from earlier work"}, "[10]": {"settings": "Homo sapiens, ASPC1, AsPC-1 cells, 48 hrs"}, "[11]": {"settings": "Homo sapiens, ASPC1, AsPC-1 cells, 72 hrs"}, "[12]": {"settings": "AsPC-1 xenograft, 28 days treatment"}, "[13]": {"settings": "cardiac blood, AsPC-1 xenograft study, mean ± SEM, n = 3"}}, "note": "Where “and” joins values, the source holds several entries; their conditions need not be identical. Equal values may be shown once."}
{"molecule": "CC(=O)O[C@H]1C(=O)[C@@]2(C)[C@H]([C@H](OC(=O)c3ccccc3)[C@]3(O)C[C@H](OC(=O)[C@H](O)[C@@H](NC(=O)c4ccccc4)c4ccccc4)C(C)=C1C3(C)C)[C@]1(OC(C)=O)CO[C@@H]1C[C@@H]2O", "note": "[Paclitaxel]", "values": [{"measurement": "CC50", "setting": "[1]; [10]", "value": 7.05, "unit": "µM"}, {"measurement": "CC50", "setting": "[1]; [11]", "value": 3.72, "unit": "µM"}]}
{"molecule": "O=c1[nH]cc(F)c(=O)[nH]1", "note": "[Compound 5-FU, 5-Fluorouracil]", "values": [{"measurement": "CC50", "setting": "[1]; [10]", "value": "> 800", "unit": "µM"}, {"measurement": "CC50", "setting": "[1]; [11]", "value": "> 800", "unit": "µM"}]}
{"molecule": "O=C1[O][Pt]2([NH][C@@H]3CCCC[C@H]3[NH]2)[O]C1=O", "note": "[Oxaliplatin]", "values": [{"measurement": "CC50", "setting": "[1]; AsPC-1 cells, 48 hrs", "value": 655, "unit": "µM"}, {"measurement": "CC50", "setting": "[1]; AsPC-1 cells, 72 hrs", "value": 57.9, "unit": "µM"}]}
{"molecule": "COC1=C(OC)C(O)C(C/C=C(\\C)CC/C=C(\\C)CCC=C(C)C)C(C)C1=O", "note": "(centres unmarked) [Compound 1, 4-hydroxy-2,3-dimethoxy-6-methyl-5-(3,7,11-trimethyldodeca-2,6,10-trienyl)cyclohex-2-enone]", "values": [{"measurement": "CC50", "setting": "[1]; [10]", "value": 58.1, "unit": "µM"}, {"measurement": "CC50", "setting": "[1]; [11]", "value": 24, "unit": "µM"}, {"measurement": "Response, TCR (tumor volume of treatment-to-control ratios)", "setting": "[2]; [12]", "value": 0.55}, {"measurement": "TGI (volume of tumor growth inhibition)", "setting": "[2]; [12]", "value": 51, "unit": "%"}, {"measurement": "TIR (tumor weight inhibitory ratio)", "setting": "[2]; [12]", "value": 45, "unit": "%"}, {"measurement": "Tumor weight of excised tumors at the time of sacrifice", "setting": "[2]; after 28 days of treatments, A 120 mg/kg oral daily, G/P IV twice weekly, mean ± SEM", "value": "0.21 ± 0.07", "unit": "g"}, {"measurement": "number of blood cells", "setting": "[3]; AsPC-1 xenograft", "value": "did not affect number of blood cells except for blood glucose"}, {"measurement": "HCT", "setting": "[3]; [13]", "value": "50.3 ± 1.8", "unit": "%"}, {"measurement": "HGB", "setting": "[3]; [13]", "value": "15.6 ± 1.1", "unit": "g/dL"}, {"measurement": "MCH", "setting": "[3]; [13]", "value": "15.3 ± 0.3", "unit": "pg"}, {"measurement": "MCV", "setting": "[3]; [13]", "value": "53.6 ± 2.3", "unit": "fL"}, {"measurement": "RBC", "setting": "[3]; [13]", "value": "9.93 ± 1.34 10^12/L"}, {"measurement": "WBC", "setting": "[3]; [13]", "value": "7.34 ± 0.71 10^9/L"}, {"measurement": "patient tumor size after treatment", "setting": "[4]", "value": "84 mm and 39 mm"}, {"measurement": "patient tumor size reduced", "setting": "[4]", "value": "7.6% and 22%"}, {"measurement": "tolerability, body weight loss", "setting": "[5]; tumor bearing mice", "value": "tolerated well"}, {"measurement": "anti-tumor activity (mean tumor volumes and tumor weights vs vehicle control)", "setting": "[5]; measured 10 days after drug treatment", "value": "effective anti-tumor activity"}, {"measurement": "safety and tolerability", "setting": "[6]", "value": "generally safe and well tolerated"}]}
{"molecule": "CCc1c2c(nc3ccc(OC(=O)N4CCC(N5CCCCC5)CC4)cc13)-c1cc3c(c(=O)n1C2)COC(=O)[C@]3(O)CC", "note": "[Irinotecan]", "values": [{"measurement": "CC50", "setting": "[1]; [10]", "value": 221, "unit": "µM"}, {"measurement": "CC50", "setting": "[1]; [11]", "value": 68.3, "unit": "µM"}]}
{"molecule": "C#Cc1cccc(Nc2ncnc3cc(OCCOC)c(OCCOC)cc23)c1", "note": "[Erlotinib]", "values": [{"measurement": "CC50", "setting": "[1]; [10]", "value": "> 800", "unit": "µM"}, {"measurement": "CC50", "setting": "[1]; [11]", "value": "> 800", "unit": "µM"}]}
{"molecule": "Nc1ccn([C@@H]2O[C@H](CO)[C@@H](O)C2(F)F)c(=O)n1", "note": "[Gemcitabine]", "values": [{"measurement": "CC50", "setting": "[1]; [10]", "value": "> 800", "unit": "µM"}, {"measurement": "CC50", "setting": "[1]; [11]", "value": "> 800", "unit": "µM"}, {"measurement": "Median progression-free survival (PFS)", "setting": "[7]", "value": 3.3, "unit": "months"}, {"measurement": "median overall survival (OS)", "setting": "[7]", "value": 6.8, "unit": "months"}, {"measurement": "Median PFS", "setting": "[8]", "value": 3.7, "unit": "months"}, {"measurement": "median OS", "setting": "[8]", "value": 6.7, "unit": "months"}, {"measurement": "improvement in median survival duration", "setting": "[9]", "value": 5, "unit": "week"}]}
